These results are taken from article PMC7154053, “Chemical, Metabolic, and Cellular Characterization of a FtsZ Inhibitor Effective Against Burkholderia cenocepacia” (Frontiers in Microbiology, 2020).

The test system of one series is P. aeruginosa PAO1. In words: MIC, 2-fold microdilution, resazurin method. The series is classed as cell-based. The following applies: Pseudomonas aeruginosa, PAO1. How it is done: (§1) Burkholderia cenocepacia strains, Escherichia coli ATCC 25922, Pseudomonas aeruginosa PAO1, and Staphylococcus aureus ATCC 25923 were grown in Luria-Bertani (LB) medium (Difco), if not differently specified, with shaking at 200 rpm, or on LB agar, at 37°C.
(§2) The microtiter plates were incubated at 37°C for 48 (for B. cenocepacia) or 24 h (for all the other strains) and growth was determined by the resazurin method (Martin et al., [2006]). A solution of resazurin sodium salt (Sigma Aldrich) was prepared at 0.01% in distilled water and filter-sterilized. Thirty microliter of resazurin solution were added to each well after 1 or 2 days of incubation at 37°C, and the microtiters were re-incubated at the same temperature for 4 h. The MIC was defined as the lowest concentration of the drug that prevented a change in color from blue to pink, which indicates bacterial growth.
(§3) Three independent biological replicates were used for each MIC determination.

Another series relates to E. coli ATCC 25922. In words: MIC, 2-fold microdilution, resazurin method. The series is classed as cell-based. The conditions noted are these: Escherichia coli, ATCC25922. The method, then:
as §1, §2, §3

In the next series the test system is B. cenocepacia J2315. Kind of series: MIC, 2-fold microdilution, resazurin method. The series is classed as cell-based, Burkholderia cenocepacia. The following applies: for MIC: Burkholderia cenocepacia, J2315; for activity compared with C109, in words: SAR statements, against both bacteria and the purified enzyme. How it is done:
as §1, §2, §3

Series [1] has as its target Burkholderia cenocepacia purified FtsZ protein (Burkholderia cenocepacia, UniProt B4E5Y7). In words: biochemical. The series is classed as biochemical. The conditions noted are these: for Inhibition of Bc FtsZ At 100 μM: 100 μM compound; for Inhibition of Bc FtsZ At 100 μM / Inhibits B. cenocepacia FtsZ GTPase at 100µM?: Yes/No; for Inhibits B. cenocepacia FtsZ GTPase at 100µM?: Supplementary Table 1. The method, then:
All the recombinant FtsZ proteins were expressed at 20°C overnight in E. coli BL21(DE3) cells, upon induction with 0.5 mM IPTG, and purified using the same protocol assessed for the wild-type B. cenocepacia FtsZ (Hogan et al., [2018]).
GTPase enzyme activity was determined using a pyruvate kinase/L-lactic dehydrogenase (PK/LDH) spectrophotometric coupled assay (Ingerman and Nunnari, [2005]). The assays were performed at 30°C, in a reaction mixture containing […] Hepes pH 7.5, 5 mM MgCl2, 5 mM KCl, 10 U PK/LDH, 0.25 mM NADH, 0.25 mM PEP, and 5–10 μM FtsZ, and initiated by the addition of 0.5 mM GTP. Alternatively, GTPase activity was determined by measuring the release of phosphate using the malachite green assay (Baykov et al., [1988]).
(1) A[I]=A[0]×(1-[I]/[I]+IC50)
where A[I] is the enzyme activity at inhibitor concentration [I] and A[0] is the enzyme activity without inhibitor.

A further series deals with S. aureus ATCC 25923. In words: MIC, 2-fold microdilution, resazurin method. The conditions noted are these: for MIC: Staphylococcus aureus, ATCC25923; for spectrum of activity, in words: S. aureus vs Gram-negative species. The series is classed as cell-based, Staphylococcus aureus. The method, then:
as §1, §2, §3

[2] abbreviates: LB, 24 h, read-out: MIC P. aeruginosa PAO1.
Where [3] appears, read: Supplementary Table 1, read-out: MIC (µg/ml) P. aeruginosa PAO1.
[4] abbreviates: LB, 24 h, read-out: MIC E. coli 25922.
Where [5] appears, read: Supplementary Table 1, read-out: MIC (µg/ml) E. coli 25922.
Setting [6] is: LB, 48 h, read-out: MIC B. cenocepacia J2315.
Where [7] appears, read: Supplementary Table 1, read-out: MIC (µg/ml) B. cenocepacia J2315.
Where [8] appears, read: LB, 24 h, read-out: MIC S. aureus 25923.
The mark [9] stands for this setting: Supplementary Table 1, read-out: MIC (µg/ml) S. aureus 25923.

pIC50: −log10 of the molar value. In brackets after ≈: the same amount, converted by molar mass. Like-named read-outs stand apart in the source and are kept apart here. A value given as a limit tells only on which side of the number the result lay.

Chain of Burkholderia cenocepacia purified FtsZ protein (B4E5Y7 entry or part of it): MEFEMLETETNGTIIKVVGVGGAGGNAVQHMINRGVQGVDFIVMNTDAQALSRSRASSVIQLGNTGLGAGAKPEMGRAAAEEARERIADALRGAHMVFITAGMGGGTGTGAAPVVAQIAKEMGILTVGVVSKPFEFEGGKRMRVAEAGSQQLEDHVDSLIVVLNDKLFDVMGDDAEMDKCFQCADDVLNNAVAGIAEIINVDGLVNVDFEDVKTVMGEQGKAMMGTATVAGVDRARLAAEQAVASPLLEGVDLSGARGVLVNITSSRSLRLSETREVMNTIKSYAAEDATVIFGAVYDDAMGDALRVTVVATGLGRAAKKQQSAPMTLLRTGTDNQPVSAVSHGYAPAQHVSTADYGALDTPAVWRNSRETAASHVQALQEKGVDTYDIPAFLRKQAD

`COC(=O)C[S+]([O-])c1ccc2nsnc2c1[N+](=O)[O-]` (stereo not shown) [compound 11726257]: the melting point fell in the range of 179 to 181 °C. Besides, the MIC in the series with P. aeruginosa PAO1 (setting [2]) was found to be 128 µg/mL (≈ 425 µM). Moreover, the MIC in the series on P. aeruginosa PAO1 (setting [3]) came to 128 µg/mL (≈ 425 µM). Moreover, the MIC in the series on E. coli ATCC 25922 (setting [4]) worked out at 8 µg/mL (≈ 26.6 µM). Moreover, the MIC in the series on E. coli ATCC 25922 (setting [5]) was 8 µg/mL (≈ 26.6 µM). For the same compound, the MIC in the series on B. cenocepacia J2315 (setting [6]) is 16 µg/mL (≈ 53.1 µM). Moreover, the MIC in the series on B. cenocepacia J2315 (setting [7]) was found to be 16 µg/mL (≈ 53.1 µM). The “activity compared with C109, in words” value with B. cenocepacia J2315 is on record as “activity on B. cenocepacia similar to C109”. In addition, in series [1], the pIC50 was 5.52, the “Inhibition of Bc FtsZ At 100 μM” value is “Yes” and the “Inhibits B. cenocepacia FtsZ GTPase at 100µM?” value is reported as “Yes”. The MIC in the series with S. aureus ATCC 25923 (setting [8]) was found to be 8 µg/mL (≈ 26.6 µM). Moreover, the MIC in the series on S. aureus ATCC 25923 (setting [9]) is 8 µg/mL (≈ 26.6 µM).
On to `CC(C)Oc1cc(SC#N)c2nsnc2c1[N+](=O)[O-]` [compound 11126010], for which the melting point fell in the range of 116 to 118 °C. The MIC in the series with P. aeruginosa PAO1 (setting [2]) is greater than 128 µg/mL. Further, in the series on P. aeruginosa PAO1 (setting [3]), the MIC is greater than 128 µg/mL. In addition, the MIC in the series with E. coli ATCC 25922 (setting [4]) is greater than 512 µg/mL. Moreover, in the series on E. coli ATCC 25922 (setting [5]), the MIC was greater than 512 µg/mL. In addition, in the series on B. cenocepacia J2315 (setting [6]), the MIC was greater than 128 µg/mL. In the series on B. cenocepacia J2315 (setting [7]), the MIC is greater than 128 µg/mL. In series [1], the pIC50 is 4.82, the “Inhibition of Bc FtsZ At 100 μM” value is listed as “Yes” and the “Inhibits B. cenocepacia FtsZ GTPase at 100µM?” value was “Yes”. For the same compound, the “spectrum of activity, in words” value with S. aureus ATCC 25923 is “showed activity only against S. aureus”. Further, the MIC in the series on S. aureus ATCC 25923 (setting [8]) came to 4 µg/mL (≈ 13.5 µM). Also, the MIC in the series on S. aureus ATCC 25923 (setting [9]) stood at 4 µg/mL (≈ 13.5 µM).
`N#CSc1cc(SC#N)c2nsnc2c1[N+](=O)[O-]` [compound 10626056]: the melting point was in the range of 167 to 169 °C. The MIC in the series with P. aeruginosa PAO1 (setting [2]) was greater than 128 µg/mL. Moreover, the MIC in the series with P. aeruginosa PAO1 (setting [3]) is greater than 128 µg/mL. Besides, the MIC in the series with E. coli ATCC 25922 (setting [4]) is greater than 512 µg/mL. For the same compound, in the series with E. coli ATCC 25922 (setting [5]), the MIC was greater than 512 µg/mL. Further, in the series with B. cenocepacia J2315 (setting [6]), the MIC was greater than 64 µg/mL. Also, in the series on B. cenocepacia J2315 (setting [7]), the MIC is greater than 64 µg/mL. Moreover, in series [1], the pIC50 is 4.28, the “Inhibition of Bc FtsZ At 100 μM” value is on record as “Yes” and the “Inhibits B. cenocepacia FtsZ GTPase at 100µM?” value is “Yes”. Moreover, the “spectrum of activity, in words” value with S. aureus ATCC 25923 is on record as “showed activity only against S. aureus”. Moreover, the MIC in the series on S. aureus ATCC 25923 (setting [8]) worked out at 8 µg/mL (≈ 27.1 µM). In addition, in the series on S. aureus ATCC 25923 (setting [9]), the MIC worked out at 8 µg/mL (≈ 27.1 µM).
`O=[N+]([O-])c1c(Sc2ncc[nH]2)ccc2nsnc12` [compound 11726256]: the melting point was 213 to 215 °C. For the same compound, in the series with P. aeruginosa PAO1 (setting [2]), the MIC is greater than 256 µg/mL. For the same compound, in the series on P. aeruginosa PAO1 (setting [3]), the MIC was greater than 256 µg/mL. In the series with E. coli ATCC 25922 (setting [4]), the MIC was 128 µg/mL (≈ 458 µM). The MIC in the series on E. coli ATCC 25922 (setting [5]) came out at 128 µg/mL (≈ 458 µM). Also, the MIC with B. cenocepacia J2315 (setting [6]) was found to be 128 µg/mL (≈ 458 µM). Further, in the series with B. cenocepacia J2315 (setting [7]), the MIC was determined as 256 µg/mL (≈ 917 µM). Besides, in series [1], the pIC50 is less than 4.00 and the “Inhibits B. cenocepacia FtsZ GTPase at 100µM?” value is listed as “Yes”. The “spectrum of activity, in words” value in the series on S. aureus ATCC 25923 is listed as “showed activity only against S. aureus”. In addition, the MIC with S. aureus ATCC 25923 (setting [8]) stood at 8 µg/mL (≈ 28.6 µM). The MIC in the series on S. aureus ATCC 25923 (setting [9]) is 8 µg/mL (≈ 28.6 µM).
In turn, `CCOC(=O)C(C)Sc1ccc2nsnc2c1[N+](=O)[O-]` (stereo not shown) [compound 11826110] registered a melting point of 153 to 155 °C. In addition, the MIC in the series with P. aeruginosa PAO1 (setting [2]) is greater than 256 µg/mL. Further, the MIC in the series on P. aeruginosa PAO1 (setting [3]) is greater than 256 µg/mL. Also, the MIC in the series with E. coli ATCC 25922 (setting [4]) amounted to 32 µg/mL (≈ 102 µM). In addition, the MIC in the series on E. coli ATCC 25922 (setting [5]) came out at 32 µg/mL (≈ 102 µM). Further, the MIC with B. cenocepacia J2315 (setting [6]) stood at 16 µg/mL (≈ 51.1 µM). The MIC in the series on B. cenocepacia J2315 (setting [7]) is 16 µg/mL (≈ 51.1 µM). The “activity compared with C109, in words” value with B. cenocepacia J2315 is “partially lost activity”. In addition, in series [1], the negative-log IC50 (pIC50) was less than 4.00, the “Inhibition of Bc FtsZ At 100 μM” value was “No” and the “Inhibits B. cenocepacia FtsZ GTPase at 100µM?” value was “No”. In addition, the MIC in the series on S. aureus ATCC 25923 (setting [8]) came to 32 µg/mL (≈ 102 µM). The MIC in the series with S. aureus ATCC 25923 (setting [9]) stood at 32 µg/mL (≈ 102 µM).
